From US11731976B2, “3-(ethoxydifluoromethyl)-6-(5-fluoro-6-(2,2,2-trifluoroethoxy)pyridin-3-yl)-[1,2,4]triazolo[4,3-a]pyridine as an ion channel modulator” (Praxis Precision Medicines, Inc., priority 2018, dated 2023)

Each compound was assayed against T1, human NaV1.6 (hNaV1.6) (Homo sapiens, UniProt Q9UQD0) (assay: Modulation of late sodium current (INaL), PatchXpress electrophysiology, HEK-293 cells expressing hNaV1.6). Details: HEK293, late current evoked by 300 nM ATX-II, read-out: NaV 1.6 Assay Data: percent inhibition of INaL at hNaV1.6.
T1 construct: expressed in transfected cells; host or cells: HEK-293
T1 sequence (Q9UQD0 whole entry): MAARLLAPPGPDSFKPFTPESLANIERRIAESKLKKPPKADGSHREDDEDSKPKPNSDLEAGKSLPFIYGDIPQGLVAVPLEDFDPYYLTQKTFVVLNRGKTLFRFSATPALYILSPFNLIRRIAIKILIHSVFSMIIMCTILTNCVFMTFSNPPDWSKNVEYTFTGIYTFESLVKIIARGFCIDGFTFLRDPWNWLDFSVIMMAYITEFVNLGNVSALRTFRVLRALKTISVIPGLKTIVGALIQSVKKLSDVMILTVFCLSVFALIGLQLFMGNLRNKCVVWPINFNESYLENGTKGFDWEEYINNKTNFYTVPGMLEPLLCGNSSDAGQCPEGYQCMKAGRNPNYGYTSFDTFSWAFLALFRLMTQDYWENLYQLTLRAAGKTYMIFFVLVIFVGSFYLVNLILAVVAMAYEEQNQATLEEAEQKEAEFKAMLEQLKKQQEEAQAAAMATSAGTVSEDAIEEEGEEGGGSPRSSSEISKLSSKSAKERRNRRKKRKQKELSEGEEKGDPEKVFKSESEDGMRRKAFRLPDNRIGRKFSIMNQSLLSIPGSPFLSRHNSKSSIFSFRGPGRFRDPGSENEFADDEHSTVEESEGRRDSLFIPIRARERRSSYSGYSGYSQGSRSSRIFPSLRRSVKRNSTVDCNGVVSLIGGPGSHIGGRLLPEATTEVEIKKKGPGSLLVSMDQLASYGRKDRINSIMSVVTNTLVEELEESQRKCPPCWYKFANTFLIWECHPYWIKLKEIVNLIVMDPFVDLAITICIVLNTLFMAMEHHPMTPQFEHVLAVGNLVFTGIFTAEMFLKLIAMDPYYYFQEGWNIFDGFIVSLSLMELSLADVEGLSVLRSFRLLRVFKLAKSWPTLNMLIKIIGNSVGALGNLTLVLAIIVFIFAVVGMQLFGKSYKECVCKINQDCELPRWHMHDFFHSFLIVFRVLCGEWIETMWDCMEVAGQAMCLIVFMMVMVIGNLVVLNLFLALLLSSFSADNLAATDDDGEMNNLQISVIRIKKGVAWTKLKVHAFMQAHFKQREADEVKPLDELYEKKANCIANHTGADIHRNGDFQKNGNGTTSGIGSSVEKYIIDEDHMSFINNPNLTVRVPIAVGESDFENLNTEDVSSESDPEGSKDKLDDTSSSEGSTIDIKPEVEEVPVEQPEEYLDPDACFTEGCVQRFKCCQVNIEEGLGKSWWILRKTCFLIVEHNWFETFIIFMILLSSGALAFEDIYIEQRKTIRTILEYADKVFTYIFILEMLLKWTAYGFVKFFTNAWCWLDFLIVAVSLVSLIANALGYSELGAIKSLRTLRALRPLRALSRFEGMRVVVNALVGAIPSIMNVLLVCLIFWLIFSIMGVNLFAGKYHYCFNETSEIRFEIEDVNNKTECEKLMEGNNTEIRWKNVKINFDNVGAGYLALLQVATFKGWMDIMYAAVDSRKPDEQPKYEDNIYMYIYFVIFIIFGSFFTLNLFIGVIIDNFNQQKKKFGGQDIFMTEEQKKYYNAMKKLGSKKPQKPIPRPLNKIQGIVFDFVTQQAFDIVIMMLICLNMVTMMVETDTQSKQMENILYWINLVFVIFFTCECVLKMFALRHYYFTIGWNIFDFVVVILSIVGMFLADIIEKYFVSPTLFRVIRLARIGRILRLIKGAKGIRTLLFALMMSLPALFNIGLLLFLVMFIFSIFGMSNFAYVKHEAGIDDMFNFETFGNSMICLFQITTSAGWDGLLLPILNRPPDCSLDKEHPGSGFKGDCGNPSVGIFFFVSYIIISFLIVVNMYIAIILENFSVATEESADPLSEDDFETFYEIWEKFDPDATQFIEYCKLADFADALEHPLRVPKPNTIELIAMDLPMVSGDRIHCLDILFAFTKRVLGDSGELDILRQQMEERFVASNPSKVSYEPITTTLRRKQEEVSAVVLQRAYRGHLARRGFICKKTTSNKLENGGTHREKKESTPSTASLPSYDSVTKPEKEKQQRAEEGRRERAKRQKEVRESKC
Assay type: cell-based
Procedure: Functional characterization of exemplary compounds to modulate INaL expressed by the NaV1.6 voltage-gated sodium channel was accomplished using the PatchXpress™ high throughput electrophysiology platform (Molecular Devices, Sunnyvale, Calif.). HEK-293 cells expressing recombinant, human NaV1.6 (hNaV1.6) were grown in DMEM/high-glucose Dulbecco's modified, 10% FBS, 2 mM sodium pyruvate, 10 mM HEPES and 400 μg/mL G418. Cells were grown to 50%-80% confluency prior to harvesting. Trypsinized cells were washed, allowed to recover for 1 hour and then resuspended in extracellular recording solution at a concentration of 1×10^6 cells/ml. The onboard liquid handling facility of the PatchXpress was used for dispensing cells and applying test compounds. NaV late currents were evoked by the application of 300 nM ATX-II. INaL was evoked by depolarizing pulses to 0 mV for 200 ms from a non-inactivating holding potential (e.g., −120 mV) at a frequency of 0.1 Hz. INaL amplitude and stability were determined by analyzing the mean current amplitude over the final 20 ms of the test pulse. Following steady state block with exemplary compounds (e.g., as described herein), a Na+ free solution containing an impermeant cation (e.g., Choline or NDMG) was added to confirm the identify of the sodium current. Percent steady-state inhibition of INaL was calculated as: [(INaL_compound)/(INaL_control)]*100, where INaL_compound and INaL_control represent INaL recorded in the presence or absence of compound, respectively.
`CCOC(F)(F)c1nnc2ccc(-c3cnc(O[C@H](C)C(F)(F)F)c(F)c3)cn12` [Compound 34, 3-[ethoxy(difluoro)methyl]-6-[5-fluoro-6-[(1R)-2,2,2-trifluoro-1-methyl-ethoxy]-3-pyridyl]-[1,2,4]triazolo[4,3-a]pyridine] was tested, and the inhibition at 1 µM was > 70%.
For `CC(C)COC(F)(F)c1nnc2cnc(-c3cnc(OCC(F)(F)F)c(F)c3)cn12` [Compound 82, 3-(difluoro(isobutoxy)methyl)-6-(5-fluoro-6-(2,2,2-trifluoroethoxy)pyridin-3-yl)-[1,2,4]triazolo[4,3-a]pyrazine], the inhibition at 1 µM was > 70%.
In the case of `CCOCc1nnc2cnc(-c3cnc(OC(C)(C)C(F)(F)F)c(F)c3)cn12` [Compound 79, 3-(ethoxymethyl)-6-(5-fluoro-6-((1,1,1-trifluoro-2-methylpropan-2-yl)oxy)pyridin-3-yl)-[1,2,4]triazolo[4,3-a]pyrazine], the inhibition at 1 µM is reported as > 70%.
For `COC(F)(F)c1nnc2cnc(-c3cnc(O[C@@H](C)C(F)(F)F)c(F)c3)c(C)n12` [Compound 58, 3-[difluoro(methoxy)methyl]-6-[5-fluoro-6-[(1S)-2,2,2-trifluoro-1-methyl-ethoxy]-3-pyridyl]-5-methyl-[1,2,4]triazolo[4,3-a]pyrazine], the inhibition at 1 µM was > 70%.
Compound `COC(F)(F)c1nnc2cc(C)c(-c3cnc(OCC(F)(F)F)c(F)c3)nn12` [Compound 65, 3-[difluoro(methoxy)methyl]-6-[5-fluoro-6-(2,2,2-trifluoroethoxy)-3-pyridyl]-7-methyl-[1,2,4]triazolo[4,3-b]pyridazine] has an inhibition at 1 µM of 30 to 70%.
With `CC(C)COC(F)(F)c1nnc2ccc(-c3cnc(O[C@H](C)C(F)(F)F)c(F)c3)cn12` [Compound 23, 3-[difluoro(isobutoxy)methyl]-6-[5-fluoro-6-[(1R)-2,2,2-trifluoro-1-methyl-ethoxy]-3-pyridyl]-[1,2,4]triazolo[4,3-a]pyridine] the inhibition at 1 µM was > 70%.
With `COCc1nnc2ccc(-c3cnc(OC(C)(C)C(F)(F)F)c(F)c3)cn12` [Compound 28, 6-[5-fluoro-6-(2,2,2-trifluoro-1,1-dimethyl-ethoxy)-3-pyridyl]-3-(methoxymethyl)-[1,2,4]triazolo[4,3-a]pyridine] the inhibition at 1 µM was > 70%.
With `CC(C)OC(F)(F)c1nnc2ccc(-c3cnc(O[C@H](C)C(F)(F)F)c(F)c3)cn12` [Compound 21, 3-[difluoro(isopropoxy)methyl]-6-[5-fluoro-6-[(1R)-2,2,2-trifluoro-1-methyl-ethoxy]-3-pyridyl]-[1,2,4]triazolo[4,3-a]pyridine] the inhibition at 1 µM was > 70%.
For `CCOC(F)(F)c1nnc2cnc(-c3cnc(OCc4ccccc4)c(F)c3)cn12` [Compound 64, 6-(6-benzyloxy-5-fluoro-3-pyridyl)-3-[ethoxy(difluoro)methyl]-[1,2,4]triazolo[4,3-a]pyrazine], the inhibition at 1 µM was > 70%.
In the case of `COCc1nnc2ccc(-c3cnc(O[C@H](C)C(F)(F)F)c(F)c3)nn12` [Compound 46, 6-[5-fluoro-6-[(1R)-2,2,2-trifluoro-1-methyl-ethoxy]-3-pyridyl]-3-(methoxymethyl)-[1,2,4]triazolo[4,3-b]pyridazine], the inhibition at 1 µM is reported as 30 to 70%.
In the case of `C[C@H](Oc1ncc(-c2ccc3nnc(C(F)(F)OC4CC4)n3c2)cc1F)C(F)(F)F` [Compound 37, 3-[cyclopropoxy(difluoro)methyl]-6-[5-fluoro-6-[(1S)-2,2,2-trifluoro-1-methyl-ethoxy]-3-pyridyl]-[1,2,4]triazolo[4,3-a]pyridine], the inhibition at 1 µM is reported as > 70%.
In the case of `COCc1nnc2ccc(-c3cnc(OCC(F)(F)F)c(F)c3)nn12` [Compound 35, 6-[5-fluoro-6-(2,2,2-trifluoroethoxy)-3-pyridyl]-3-(methoxymethyl)-[1,2,4]triazolo[4,3-b]pyridazine], the inhibition at 1 µM is reported as < 30%.
`CC(C)OC(F)(F)c1nnc2ccc(-c3cnc(O[C@@H](C)C(F)(F)F)c(F)c3)cn12` [Compound 20, 3-[difluoro(isopropoxy)methyl]-6-[5-fluoro-6-[(1S)-2,2,2-trifluoro-1-methyl-ethoxy]-3-pyridyl]-[1,2,4]triazolo[4,3-a]pyridine] was tested, and the inhibition at 1 µM was > 70%.
`COCc1nnc2cnc(-c3cnc(OCC(F)(F)F)c(F)c3)cn12` [Compound 39, 6-[5-fluoro-6-(2,2,2-trifluoroethoxy)-3-pyridyl]-3-(methoxymethyl)-[1,2,4]triazolo[4,3-a]pyrazine] was tested, and the inhibition at 1 µM was < 30%.
`COC(F)(F)c1nnc2cnc(-c3cnc(O[C@H](C)C(F)(F)F)c(F)c3)c(C)n12` [Compound 60, 3-[difluoro(methoxy)methyl]-6-[5-fluoro-6-[(1R)-2,2,2-trifluoro-1-methyl-ethoxy]-3-pyridyl]-5-methyl-[1,2,4]triazolo[4,3-a]pyrazine] gave an inhibition at 1 µM of 30 to 70%.
`COCc1nnc2cnc(-c3cnc(O[C@H](C)C(F)(F)F)c(F)c3)cn12` [Compound 31, 6-[5-fluoro-6-[(1R)-2,2,2-trifluoro-1-methyl-ethoxy]-3-pyridyl]-3-(methoxymethyl)-[1,2,4]triazolo[4,3-a]pyrazine] was tested, and the inhibition at 1 µM was < 30%.
`COCc1nnc2cc(C)c(-c3cnc(OC(C)(C)C(F)(F)F)c(F)c3)nn12` [Compound 69, 6-[5-fluoro-6-(2,2,2-trifluoro-1,1-dimethyl-ethoxy)-3-pyridyl]-3-(methoxymethyl)-7-methyl-[1,2,4]triazolo[4,3-b]pyridazine] gave an inhibition at 1 µM of 30 to 70%.
In the case of `COC(F)(F)c1nnc2cnc(-c3ccc(OC4(C(F)(F)F)CCC4)nc3)cn12` [Compound 57], the inhibition at 1 µM is reported as > 70%.
With `CC(C)COC(F)(F)c1nnc2ccc(-c3cnc(O[C@@H](C)C(F)(F)F)c(F)c3)cn12` [Compound 22, 3-[difluoro(isobutoxy)methyl]-6-[5-fluoro-6-[(1S)-2,2,2-trifluoro-1-methyl-ethoxy]-3-pyridyl]-[1,2,4]triazolo[4,3-a]pyridine] the inhibition at 1 µM was > 70%.
In the case of `COC(F)(F)c1nnc2cnc(-c3cnc(O[C@H](C)C(F)(F)F)c(F)c3)cn12` (racemic) [Compound 6A, 3-[difluoro(methoxy)methyl]-6-[5-fluoro-6-[rac-(1R)-2,2,2-trifluoro-1-methyl-ethoxy]-3-pyridyl]-[1,2,4]triazolo[4,3-a]pyrazine], the inhibition at 1 µM is reported as > 70%.
In the case of `CCOC(F)(F)c1nnc2ccc(-c3cnc(O[C@@H](C)C(F)(F)F)c(F)c3)cn12` [Compound 32, 3-[ethoxy(difluoro)methyl]-6-[5-fluoro-6-[(1S)-2,2,2-trifluoro-1-methyl-ethoxy]-3-pyridyl]-[1,2,4]triazolo[4,3-a]pyridine], the inhibition at 1 µM is reported as > 70%.
`CCOC(F)(F)c1nnc2cnc(-c3ccc(OCC(F)(F)F)nc3)cn12` [Compound 81, 3-(ethoxydifluoromethyl)-6-(6-(2,2,2-trifluoroethoxy)pyridin-3-yl)-[1,2,4]triazolo[4,3-a]pyrazine] was tested, and the inhibition at 1 µM was > 70%.
With `CC(C)COC(F)(F)c1nnc2ccc(-c3cnc(OCC(F)(F)F)c(F)c3)cn12` [Compound 2, 3-[difluoro(isobutoxy)methyl]-6-[5-fluoro-6-(2,2,2-trifluoroethoxy)-3-pyridyl]-[1,2,4]triazolo[4,3-a]pyridine] the inhibition at 1 µM was > 70%.
With `COCc1nnc2ccc(-c3cnc(O[C@@H](C)C(F)(F)F)c(F)c3)nn12` [Compound 44, 6-[5-fluoro-6-[(1S)-2,2,2-trifluoro-1-methyl-ethoxy]-3-pyridyl]-3-(methoxymethyl)-[1,2,4]triazolo[4,3-b]pyridazine] the inhibition at 1 µM was 30 to 70%.
With `COC(F)(F)c1nnc2ccc(-c3cnc(O[C@@H](C)C(F)(F)F)c(F)c3)nn12` [Compound 12, 3-[difluoro(methoxy)methyl]-6-[5-fluoro-6-[(1S)-2,2,2-trifluoro-1-methyl-ethoxy]-3-pyridyl]-[1,2,4]triazolo[4,3-b]pyridazine] the inhibition at 1 µM was > 70%.
With `C[C@@H](Oc1ncc(-c2cn3c(C(F)(F)OC4CC4)nnc3cn2)cc1F)C(F)(F)F` [Compound 51, 3-[cyclopropoxy(difluoro)methyl]-6-[5-fluoro-6-[(1R)-2,2,2-trifluoro-1-methyl-ethoxy]-3-pyridyl]-[1,2,4]triazolo[4,3-a]pyrazine] the inhibition at 1 µM was > 70%.
For `COC(F)(F)c1nnc2cc(C)c(-c3cnc(O[C@@H](C)C(F)(F)F)c(F)c3)nn12` [Compound 68, 3-[difluoro(methoxy)methyl]-6-[5-fluoro-6-[(1S)-2,2,2-trifluoro-1-methyl-ethoxy]-3-pyridyl]-7-methyl-[1,2,4]triazolo[4,3-b]pyridazine], the inhibition at 1 µM was > 70%.
With `CCOC(F)(F)c1nnc2ccc(-c3cnc(O[C@@H](C)C(F)(F)F)c(F)c3)nn12` [Compound 41, 3-[ethoxy(difluoro)methyl]-6-[5-fluoro-6-[(1S)-2,2,2-trifluoro-1-methyl-ethoxy]-3-pyridyl]-[1,2,4]triazolo[4,3-b]pyridazine] the inhibition at 1 µM was > 70%.
In the case of `Fc1cc(-c2ccc3nnc(C(F)(F)OCC4CC4)n3c2)cnc1OCC(F)(F)F` [Compound 1, 3-[cyclopropylmethoxy(difluoro)methyl]-6-[5-fluoro-6-(2,2,2-trifluoroethoxy)-3-pyridyl]-[1,2,4]triazolo[4,3-a]pyridine], the inhibition at 1 µM is reported as > 70%.
